System: 313798-341-R-J2-PDC spheroids, viability
Test: Anticancer human tumor 313798-341-R-J2-PDC patient-derived cervical squamous cell carcinoma cell line growth inhibition [PI3K]
Details: spheroids with HUVEC and MSC; for IC50: curve of first compound; for viability, T/C: stronger effect = lower value
Procedure, shortened: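 High-throughput combination screen: PI3K inhibitors crossed with targeted small molecules on complex spheroids of tumor cells, HUVEC and MSCs at 37 degrees C, 5% CO2. Top concentration was at or near clinical Cmax (otherwise 10 microM), with half-log decrements.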

[1] = second compound 0.0316 µM, first compound 0.0316 µM
[2] = second compound 0.0316 µM, first compound 0.1 µM
[3] = second compound 0.0316 µM, first compound 0.316 µM
[4] = second compound 0.0316 µM, first compound 1 µM
[5] = second compound 0.0316 µM, first compound 3.16 µM
[6] = second compound 0.0316 µM, first compound 10 µM
[7] = second compound 0.1 µM, first compound 0.0316 µM
[8] = second compound 0.1 µM, first compound 0.1 µM
[9] = second compound 0.1 µM, first compound 0.316 µM
[10] = second compound 0.1 µM, first compound 1 µM
[11] = second compound 0.1 µM, first compound 3.16 µM
[12] = second compound 0.1 µM, first compound 10 µM
[13] = second compound 0.316 µM, first compound 0.0316 µM
[14] = second compound 0.316 µM, first compound 0.1 µM
[15] = second compound 0.316 µM, first compound 0.316 µM
[16] = second compound 0.316 µM, first compound 1 µM
[17] = second compound 0.316 µM, first compound 3.16 µM
[18] = second compound 0.316 µM, first compound 10 µM
[19] = second compound 1 µM, first compound 0.0316 µM
[20] = second compound 1 µM, first compound 0.1 µM
[21] = second compound 1 µM, first compound 0.316 µM
[22] = second compound 1 µM, first compound 1 µM
[23] = second compound 1 µM, first compound 3.16 µM
[24] = second compound 1 µM, first compound 10 µM
[25] = second compound 3.16 µM, first compound 0.0316 µM
[26] = second compound 3.16 µM, first compound 0.1 µM
[27] = second compound 3.16 µM, first compound 0.316 µM
[28] = second compound 3.16 µM, first compound 1 µM
[29] = second compound 3.16 µM, first compound 3.16 µM
[30] = second compound 3.16 µM, first compound 10 µM
[31] = second compound 10 µM, first compound 0.0316 µM
[32] = second compound 10 µM, first compound 0.1 µM
[33] = second compound 10 µM, first compound 0.316 µM
[34] = second compound 10 µM, first compound 1 µM
[35] = second compound 10 µM, first compound 3.16 µM
[36] = second compound 10 µM, first compound 10 µM
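Also: spheroids exposed to compounds for seven days.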
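For viability, T/C in this document: 100% = DMSO vehicle control viability.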

SMILES: C#Cc1c(F)ccc2cc(O)cc(-c3ncc4c(N5CC6CCC(C5)N6)nc(OCC56CCCN5CC(F)C6)nc4c3F)c12 (stereo unspecified) + CC(Nc1ncnc2nc[nH]c12)c1cc2cccc(Cl)c2c(=O)n1-c1ccccc1
- IC50 (second compound 0.0316 µM): > 10 µM
- IC50 (second compound 0.1 µM): > 10 µM
- IC50 (second compound 0.316 µM): > 10 µM
- IC50 (second compound 1 µM): > 10 µM
- IC50 (second compound 3.16 µM): > 10 µM
- IC50 (second compound 10 µM): > 10 µM
- viability, T/C [1]: 95.5%
- viability, T/C [2]: 95.7%
- viability, T/C [3]: 99%
- viability, T/C [4]: 101%
- viability, T/C [5]: 101%
- viability, T/C [6]: 96.9%
- viability, T/C [7]: 92.5%
- viability, T/C [8]: 95.8%
- viability, T/C [9]: 93.2%
- viability, T/C [10]: 98.3%
- viability, T/C [11]: 102%
- viability, T/C [12]: 102%
- viability, T/C [13]: 95.3%
- viability, T/C [14]: 104%
- viability, T/C [15]: 90.9%
- viability, T/C [16]: 93.9%
- viability, T/C [17]: 99.1%
- viability, T/C [18]: 100%
- viability, T/C [19]: 114%
- viability, T/C [20]: 99.4%
- viability, T/C [21]: 90.3%
- viability, T/C [22]: 94.6%
- viability, T/C [23]: 104%
- viability, T/C [24]: 107%
- viability, T/C [25]: 110%
- viability, T/C [26]: 97.2%
- viability, T/C [27]: 94.3%
- viability, T/C [28]: 101%
- viability, T/C [29]: 90.4%
- viability, T/C [30]: 99.9%
- viability, T/C [31]: 93.2%
- viability, T/C [32]: 83.9%
- viability, T/C [33]: 81%
- viability, T/C [34]: 81.2%
- viability, T/C [35]: 85.1%
- viability, T/C [36]: 81.9%

SMILES: CC(Cn1ccc(-c2ccc(C#N)c(Cl)c2)n1)NC(=O)c1cc(C(C)O)[nH]n1 (stereo unspecified) + CC(Nc1ncnc2nc[nH]c12)c1cc2cccc(Cl)c2c(=O)n1-c1ccccc1
- IC50 (second compound 0.0316 µM): > 10 µM
- IC50 (second compound 0.1 µM): > 10 µM
- IC50 (second compound 0.316 µM): > 10 µM
- IC50 (second compound 1 µM): > 10 µM
- IC50 (second compound 3.16 µM): > 10 µM
- IC50 (second compound 10 µM): > 10 µM
- viability, T/C [1]: 119%
- viability, T/C [2]: 103%
- viability, T/C [3]: 106%
- viability, T/C [4]: 115%
- viability, T/C [5]: 101%
- viability, T/C [6]: 101%
- viability, T/C [7]: 101%
- viability, T/C [8]: 105%
- viability, T/C [9]: 104%
- viability, T/C [10]: 103%
- viability, T/C [11]: 98%
- viability, T/C [12]: 95%
- viability, T/C [13]: 90.9%
- viability, T/C [14]: 103%
- viability, T/C [15]: 96.6%
- viability, T/C [16]: 101%
- viability, T/C [17]: 102%
- viability, T/C [18]: 90%
- viability, T/C [19]: 113%
- viability, T/C [20]: 106%
- viability, T/C [21]: 108%
- viability, T/C [22]: 101%
- viability, T/C [23]: 96.2%
- viability, T/C [24]: 91.5%
- viability, T/C [25]: 108%
- viability, T/C [26]: 103%
- viability, T/C [27]: 100%
- viability, T/C [28]: 107%
- viability, T/C [29]: 105%
- viability, T/C [30]: 93.4%
- viability, T/C [31]: 87.8%
- viability, T/C [32]: 88.3%
- viability, T/C [33]: 94.6%
- viability, T/C [34]: 100%
- viability, T/C [35]: 90.8%
- viability, T/C [36]: 81.7%

SMILES: CC1(C)CCC(Nc2ncc(C(F)(F)F)c(-c3c[nH]c4c(P(C)(C)=O)c(C#N)ccc34)n2)CN1 (stereo unspecified) + CC(Nc1ncnc2nc[nH]c12)c1cc2cccc(Cl)c2c(=O)n1-c1ccccc1
- IC50 (second compound 0.0316 µM): < 0.0316 µM
- IC50 (second compound 0.1 µM): < 0.0316 µM
- IC50 (second compound 0.316 µM): < 0.0316 µM
- IC50 (second compound 1 µM): < 0.0316 µM
- IC50 (second compound 3.16 µM): < 0.0316 µM
- IC50 (second compound 10 µM): < 0.0316 µM
- viability, T/C [1]: 54.2%
- viability, T/C [2]: 46.3%
- viability, T/C [3]: 46.9%
- viability, T/C [4]: 48%
- viability, T/C [5]: 50.5%
- viability, T/C [6]: 60.4%
- viability, T/C [7]: 47.3%
- viability, T/C [8]: 49.3%
- viability, T/C [9]: 47.3%
- viability, T/C [10]: 46.8%
- viability, T/C [11]: 50.3%
- viability, T/C [12]: 66.6%
- viability, T/C [13]: 49.3%
- viability, T/C [14]: 44.3%
- viability, T/C [15]: 44.3%
- viability, T/C [16]: 43.8%
- viability, T/C [17]: 51.8%
- viability, T/C [18]: 62.3%
- viability, T/C [19]: 47.4%
- viability, T/C [20]: 46.8%
- viability, T/C [21]: 45.5%
- viability, T/C [22]: 49.2%
- viability, T/C [23]: 54%
- viability, T/C [24]: 58.2%
- viability, T/C [25]: 49.2%
- viability, T/C [26]: 45.4%
- viability, T/C [27]: 42.7%
- viability, T/C [28]: 45.8%
- viability, T/C [29]: 43.7%
- viability, T/C [30]: 50.3%
- viability, T/C [31]: 42.1%
- viability, T/C [32]: 36.2%
- viability, T/C [33]: 35%
- viability, T/C [34]: 34.5%
- viability, T/C [35]: 38.1%
- viability, T/C [36]: 38.1%
